Assay results from ChEMBL document CHEMBL1208692, “A specific and direct comparison of the trifluoromethyl and pentafluoro sulfanyl groups on the selective dopamine D(3) antagonist 3-(3-{[4-methyl-5-(4-methyl-1,3-oxazol-5-yl)-4H-1,2,4-triazol-3-yl]thio}propyl)-1-phenyl-3-azabicyclo[3.1.0]hexane template” (Bioorg Med Chem Lett, 2010).
pIC50, pKi: −log10 of the molar value.

Key:
[1] = molecular target: Cytochrome P450 2D6 (Homo sapiens, UniProt P10635); experiment: Inhibition of CYP2D6; assay type: ADME
Cytochrome P450 2D6, sequence (P10635 whole entry): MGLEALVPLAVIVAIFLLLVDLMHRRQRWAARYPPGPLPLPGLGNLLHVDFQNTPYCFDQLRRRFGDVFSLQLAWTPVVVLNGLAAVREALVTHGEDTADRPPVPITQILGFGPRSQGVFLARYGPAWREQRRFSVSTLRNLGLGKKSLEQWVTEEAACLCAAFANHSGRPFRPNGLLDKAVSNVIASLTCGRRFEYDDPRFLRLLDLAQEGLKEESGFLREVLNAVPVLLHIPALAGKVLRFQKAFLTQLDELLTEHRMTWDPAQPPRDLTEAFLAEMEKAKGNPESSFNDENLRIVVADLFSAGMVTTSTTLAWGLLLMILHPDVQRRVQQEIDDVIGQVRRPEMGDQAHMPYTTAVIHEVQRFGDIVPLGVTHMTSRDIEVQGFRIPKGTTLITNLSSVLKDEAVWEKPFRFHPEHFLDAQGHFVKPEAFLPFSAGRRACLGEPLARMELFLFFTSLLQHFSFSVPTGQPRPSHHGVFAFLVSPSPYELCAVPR

[2] = molecular target: T1, Cytochrome P450 3A4 (Homo sapiens, UniProt P08684); experiment: Inhibition of CYP3A4 using diethoxyfluorescein as substrate; assay type: ADME
T1 sequence (P08684 whole entry): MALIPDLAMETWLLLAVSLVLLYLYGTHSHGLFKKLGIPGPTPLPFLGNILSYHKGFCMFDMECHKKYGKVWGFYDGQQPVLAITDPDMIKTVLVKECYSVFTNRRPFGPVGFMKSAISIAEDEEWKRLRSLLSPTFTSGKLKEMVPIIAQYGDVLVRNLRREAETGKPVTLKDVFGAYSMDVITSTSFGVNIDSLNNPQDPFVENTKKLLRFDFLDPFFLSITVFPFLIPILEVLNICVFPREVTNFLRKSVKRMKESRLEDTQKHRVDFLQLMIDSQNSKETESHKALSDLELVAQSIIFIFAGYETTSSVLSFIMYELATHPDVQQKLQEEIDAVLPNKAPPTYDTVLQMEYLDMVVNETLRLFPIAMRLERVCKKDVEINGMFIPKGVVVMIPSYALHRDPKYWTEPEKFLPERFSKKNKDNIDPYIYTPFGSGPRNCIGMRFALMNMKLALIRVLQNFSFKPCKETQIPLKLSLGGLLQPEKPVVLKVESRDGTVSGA

[3] = molecular target: T2, Cytochrome P450 1A2 (Homo sapiens, UniProt P05177); experiment: Inhibition of CYP1A2; assay type: ADME
T2 sequence (P05177 whole entry): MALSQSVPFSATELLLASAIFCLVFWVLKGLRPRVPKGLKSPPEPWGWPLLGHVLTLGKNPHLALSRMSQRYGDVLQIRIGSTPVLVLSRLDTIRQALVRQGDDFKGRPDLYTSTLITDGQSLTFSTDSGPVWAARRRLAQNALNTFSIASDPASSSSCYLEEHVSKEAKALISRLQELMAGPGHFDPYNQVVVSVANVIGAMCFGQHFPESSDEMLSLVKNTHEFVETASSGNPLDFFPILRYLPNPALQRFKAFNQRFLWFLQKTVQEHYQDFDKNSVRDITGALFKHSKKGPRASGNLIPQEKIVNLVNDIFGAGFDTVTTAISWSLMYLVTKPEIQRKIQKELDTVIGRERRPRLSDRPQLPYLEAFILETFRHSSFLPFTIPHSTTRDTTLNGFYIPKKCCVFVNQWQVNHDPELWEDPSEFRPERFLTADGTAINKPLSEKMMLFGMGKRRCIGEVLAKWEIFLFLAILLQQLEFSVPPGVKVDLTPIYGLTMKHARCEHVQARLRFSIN

[4] = molecular target: D(2) dopamine receptor (Homo sapiens, UniProt P14416); experiment: Antagonist activity at dopamine D2 receptor assessed as inhibition of dopamine-induced [35S]GTPgammaS binding […]; assay type: functional
D(2) dopamine receptor, sequence (P14416 whole entry): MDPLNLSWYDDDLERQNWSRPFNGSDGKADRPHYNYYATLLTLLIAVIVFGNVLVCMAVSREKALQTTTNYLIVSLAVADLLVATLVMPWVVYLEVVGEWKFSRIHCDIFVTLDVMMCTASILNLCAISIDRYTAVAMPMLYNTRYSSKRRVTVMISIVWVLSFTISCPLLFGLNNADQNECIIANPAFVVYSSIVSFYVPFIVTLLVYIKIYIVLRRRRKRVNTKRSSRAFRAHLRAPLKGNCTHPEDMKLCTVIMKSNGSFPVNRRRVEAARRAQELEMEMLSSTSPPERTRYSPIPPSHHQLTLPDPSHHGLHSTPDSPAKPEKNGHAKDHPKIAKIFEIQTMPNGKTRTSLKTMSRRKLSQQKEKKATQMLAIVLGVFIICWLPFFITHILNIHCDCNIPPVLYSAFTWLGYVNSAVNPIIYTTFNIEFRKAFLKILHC

[5] = molecular target: D(3) dopamine receptor (Homo sapiens, UniProt P35462); experiment: Antagonist activity at dopamine D3 receptor assessed as inhibition of dopamine-induced [35S]GTPgammaS binding […]; assay type: functional
D(3) dopamine receptor, sequence (P35462 whole entry): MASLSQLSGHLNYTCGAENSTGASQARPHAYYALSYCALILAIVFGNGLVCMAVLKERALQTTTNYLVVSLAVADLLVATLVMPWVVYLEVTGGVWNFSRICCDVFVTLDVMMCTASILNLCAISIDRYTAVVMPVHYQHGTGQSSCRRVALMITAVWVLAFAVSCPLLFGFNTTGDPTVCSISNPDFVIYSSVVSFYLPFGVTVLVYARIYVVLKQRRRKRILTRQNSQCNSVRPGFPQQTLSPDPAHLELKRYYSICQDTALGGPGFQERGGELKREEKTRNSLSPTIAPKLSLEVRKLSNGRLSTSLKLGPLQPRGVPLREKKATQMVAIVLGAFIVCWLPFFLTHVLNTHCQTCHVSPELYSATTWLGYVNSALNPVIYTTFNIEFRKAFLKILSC

[6] = molecular target: Cytochrome P450 2C9 (Homo sapiens, UniProt P11712); experiment: Inhibition of CYP2C9; assay type: ADME
Cytochrome P450 2C9, sequence (P11712 whole entry): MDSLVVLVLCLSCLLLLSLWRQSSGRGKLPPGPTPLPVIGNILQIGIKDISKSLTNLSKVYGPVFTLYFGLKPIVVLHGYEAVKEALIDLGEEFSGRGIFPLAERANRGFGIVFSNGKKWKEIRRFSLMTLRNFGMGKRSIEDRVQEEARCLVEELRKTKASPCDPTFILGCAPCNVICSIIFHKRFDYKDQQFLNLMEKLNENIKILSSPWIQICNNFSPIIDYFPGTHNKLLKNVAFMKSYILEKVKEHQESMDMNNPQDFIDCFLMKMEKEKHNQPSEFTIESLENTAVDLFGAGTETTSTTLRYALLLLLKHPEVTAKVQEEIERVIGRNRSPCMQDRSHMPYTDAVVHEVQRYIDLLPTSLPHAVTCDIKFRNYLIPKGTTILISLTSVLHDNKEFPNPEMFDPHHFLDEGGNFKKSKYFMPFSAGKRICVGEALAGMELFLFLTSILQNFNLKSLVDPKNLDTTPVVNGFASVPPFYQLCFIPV

[7] = molecular target: Cytochrome P450 2C19 (Homo sapiens, UniProt P33261); experiment: Inhibition of CYP2C19; assay type: ADME
Cytochrome P450 2C19, sequence (P33261 whole entry): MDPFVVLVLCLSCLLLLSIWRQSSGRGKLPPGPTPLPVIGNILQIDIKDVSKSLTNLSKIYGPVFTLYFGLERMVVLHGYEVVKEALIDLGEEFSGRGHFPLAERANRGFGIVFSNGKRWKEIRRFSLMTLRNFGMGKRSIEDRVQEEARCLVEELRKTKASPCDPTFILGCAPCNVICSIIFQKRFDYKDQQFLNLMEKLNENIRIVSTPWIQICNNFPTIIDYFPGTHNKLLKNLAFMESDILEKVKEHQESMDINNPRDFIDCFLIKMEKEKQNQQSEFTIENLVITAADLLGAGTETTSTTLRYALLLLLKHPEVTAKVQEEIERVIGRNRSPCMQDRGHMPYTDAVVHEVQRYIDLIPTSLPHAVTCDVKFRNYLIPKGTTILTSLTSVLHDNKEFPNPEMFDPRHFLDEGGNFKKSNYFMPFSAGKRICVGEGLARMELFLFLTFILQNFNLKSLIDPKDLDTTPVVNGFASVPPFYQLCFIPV

[8] = molecular target: T1, Cytochrome P450 3A4; experiment: Inhibition of CYP3A4 using 7-benzyloxyquinoline as substrate; assay type: ADME
[9] = molecular target: Voltage-gated inwardly rectifying potassium channel KCNH2 (Homo sapiens, UniProt Q12809)
Voltage-gated inwardly rectifying potassium channel KCNH2, sequence (Q12809 whole entry): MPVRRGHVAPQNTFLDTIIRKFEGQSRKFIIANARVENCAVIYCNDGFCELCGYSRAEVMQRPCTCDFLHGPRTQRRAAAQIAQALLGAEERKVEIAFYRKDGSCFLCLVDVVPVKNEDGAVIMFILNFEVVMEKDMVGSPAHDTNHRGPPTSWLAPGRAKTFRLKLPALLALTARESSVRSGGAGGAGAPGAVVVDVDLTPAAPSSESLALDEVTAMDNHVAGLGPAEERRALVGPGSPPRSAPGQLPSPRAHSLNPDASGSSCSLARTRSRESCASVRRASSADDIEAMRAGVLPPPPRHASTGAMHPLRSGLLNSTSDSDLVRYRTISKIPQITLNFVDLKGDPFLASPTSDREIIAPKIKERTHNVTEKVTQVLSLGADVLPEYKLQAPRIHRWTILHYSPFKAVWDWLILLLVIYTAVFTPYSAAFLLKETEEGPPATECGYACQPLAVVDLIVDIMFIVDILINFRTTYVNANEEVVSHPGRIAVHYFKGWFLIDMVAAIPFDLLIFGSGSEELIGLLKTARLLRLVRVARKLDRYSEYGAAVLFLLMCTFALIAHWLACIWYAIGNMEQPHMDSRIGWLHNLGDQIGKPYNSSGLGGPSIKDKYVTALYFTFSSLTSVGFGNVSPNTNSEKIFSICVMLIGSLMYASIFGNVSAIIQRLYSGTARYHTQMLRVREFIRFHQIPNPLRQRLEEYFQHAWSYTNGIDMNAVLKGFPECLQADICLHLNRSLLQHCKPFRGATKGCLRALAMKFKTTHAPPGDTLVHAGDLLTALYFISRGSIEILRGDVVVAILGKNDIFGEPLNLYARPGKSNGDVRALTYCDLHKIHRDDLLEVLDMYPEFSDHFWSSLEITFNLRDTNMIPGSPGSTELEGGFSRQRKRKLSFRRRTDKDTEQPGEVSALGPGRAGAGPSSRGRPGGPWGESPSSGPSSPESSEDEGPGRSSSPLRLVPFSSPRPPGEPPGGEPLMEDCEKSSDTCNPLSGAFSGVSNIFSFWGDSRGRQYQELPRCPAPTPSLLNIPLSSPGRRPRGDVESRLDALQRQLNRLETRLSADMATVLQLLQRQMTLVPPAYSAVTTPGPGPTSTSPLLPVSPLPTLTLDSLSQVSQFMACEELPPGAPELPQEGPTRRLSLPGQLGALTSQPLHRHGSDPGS

[10] = Bioavailability in rat; assay type: ADME, organism-based; conditions: in vivo
[11] = Tmax in rat; assay type: ADME, organism-based; conditions: in vivo
[12] = Half life in rat; assay type: ADME, organism-based; conditions: in vivo
[13] = Ratio of drug level in brain to blood in rat; assay type: ADME, tissue-based; conditions: read-out: BBR
[14] = Blood clearance in rat; assay type: ADME, organism-based; conditions: whole blood
[15] = Volume of distribution in rat; assay type: ADME, organism-based; conditions: in vivo

Structure (SMILES) | pIC50 [1] | pIC50 [2] | pIC50 [3] | pKi [4] | pKi [5] | pIC50 [6] | pIC50 [7] | pIC50 [8] | bioavailability [10] [%] | Tmax [11] [h] | half-life [12] [h] | Kp [13] | clearance [14] [mL/min/kg] | Vd [15] [L/kg] | pIC50 [9]
Cc1ncoc1-c1nnc(SCCCN2CC3CC3(c3cccc(S(F)(F)(F)(F)F)c3)C2)n1C (racemic) | 5.52 | < 5.00 | < 5.00 | 6.90 | 8.90 | 5.40 | 5.05 | < 5.00 | – | – | – | – | – | – | 6.00
Cc1ncoc1-c1nnc(SCCCN2CC3CC3(c3ccc(S(F)(F)(F)(F)F)cc3)C2)n1C (single isomer, unassigned) | < 5.00 | < 5.00 | 5.15 | 6.60 | 7.90 | 5.05 | < 5.00 | < 5.00 | – | – | – | – | – | – | –
Cc1ncoc1-c1nnc(SCCCN2CC3CC3(c3ccc(S(F)(F)(F)(F)F)cc3)C2)n1C (racemic) | 5.10 | < 5.00 | < 5.00 | 6.80 | – | 5.05 | < 5.00 | < 5.00 | 87 | 2.7 | 4.4 | 2.2 | 8 | 2.8 | –
Cc1ncoc1-c1nnc(SCCCN2CC3CC3(c3ccc(C(F)(F)F)cc3)C2)n1C (racemic) | – | – | – | – | – | – | – | – | – | 1.5 | – | 2.3 | 14 | – | –
Cc1ncoc1-c1nnc(SCCCN2CC3CC3(c3ccc(S(F)(F)(F)(F)F)cc3)C2)n1C (stereo in doubt; 8) | < 5.00 | < 5.00 | 5.10 | 6.80 | 9.00 | 5.05 | < 5.00 | < 5.00 | – | – | – | – | – | – | –

Second part, led by results:

pIC50 [1] | pIC50 [2] | pIC50 [3] | pKi [4] | pKi [5] | pIC50 [6] | pIC50 [7] | pIC50 [8] | bioavailability [10] [%] | Tmax [11] [h] | half-life [12] [h] | Kp [13] | clearance [14] [mL/min/kg] | Vd [15] [L/kg] | Structure (SMILES) | pIC50 [9]
5.30 | < 5.00 | < 5.00 | < 5.50 | 7.80 | 5.70 | 5.40 | < 5.00 | – | – | – | – | – | – | Cc1ncoc1-c1nnc(SCCCN2CC3CC3(c3cccc(S(F)(F)(F)(F)F)c3)C2)n1C (single isomer, unassigned; 11) | 5.70
< 5.00 | < 5.00 | < 5.00 | – | – | < 5.00 | 5.30 | < 5.00 | – | – | – | – | – | – | Cc1ncoc1-c1nnc(SCCCN2CC3CC3(c3cccc(C(F)(F)F)c3)C2)n1C (racemic) | –
5.70 | < 5.00 | < 5.00 | 7.50 | 9.20 | 5.70 | 5.52 | < 5.00 | – | – | – | – | – | – | Cc1ncoc1-c1nnc(SCCCN2CC3CC3(c3cccc(S(F)(F)(F)(F)F)c3)C2)n1C (single isomer, unassigned; 12) | 5.90
